The target in one series is T1, CYP450 1A2 (Homo sapiens, UniProt P05177).
T1 construct: from tissue; host or cells: human liver microsomes
T1 sequence (P05177 1-516): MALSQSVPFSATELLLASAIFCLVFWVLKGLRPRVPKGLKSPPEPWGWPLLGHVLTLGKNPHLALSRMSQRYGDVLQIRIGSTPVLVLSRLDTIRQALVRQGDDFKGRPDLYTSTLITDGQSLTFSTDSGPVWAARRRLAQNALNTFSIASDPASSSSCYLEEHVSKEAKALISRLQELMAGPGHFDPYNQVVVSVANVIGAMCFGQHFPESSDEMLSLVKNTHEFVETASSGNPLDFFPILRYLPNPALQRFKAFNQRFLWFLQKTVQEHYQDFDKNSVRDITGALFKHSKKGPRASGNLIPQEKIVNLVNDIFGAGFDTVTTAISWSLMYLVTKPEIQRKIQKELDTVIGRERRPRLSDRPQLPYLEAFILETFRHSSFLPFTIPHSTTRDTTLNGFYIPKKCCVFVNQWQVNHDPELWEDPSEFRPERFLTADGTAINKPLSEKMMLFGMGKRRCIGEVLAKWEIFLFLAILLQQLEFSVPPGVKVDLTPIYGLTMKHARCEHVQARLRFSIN
Put plainly: Inhibition of human liver microsome CYP450 enzyme 1A2. Format: in vitro ADME. The procedure:
100 mM K-Buffer: 9.5 mL of stock solution A was mixed with 40.5 mL of stock solution B, the total volume was adjusted to 500 mL with ultrapure water, and the buffer was titrated to pH 7.4 with KOH or H3PO4. • Starting material A (1 M potassium dihydrogen phosphate): 136.5 g of potassium dihydrogen phosphate in 1 L of water; • Stock solution B ([…]): 174.2 g of potassium dihydrogen phosphate in 1 L of water.
The test substance powder was prepared into a stock solution at a certain concentration with DMSO or another organic solvent, which was then further diluted with a suitable organic solvent.
The liver microsomal in vitro incubation system for the CYP450 enzyme metabolism phenotype study was a biochemical reaction of the prepared liver microsomes supplemented with a redox coenzyme and an enzyme-specific selective inhibitor under simulated physiological temperature and physiological environment conditions.
The concentration of the parent drug or a metabolite thereof in the incubation solution was determined by LC-MS/MS. and the IC50 value was calculated.

Series [1] concerns the target T2, hERG Potassium Ion Channel (Homo sapiens, UniProt Q12809).
T2 construct: expressed in transfected cells; host or cells: HEK293
Put plainly: Effect on hERG potassium ion channel (whole-cell patch clamp, HEK293 cells). Format: cell-based. As to conditions: human, whole-cell patch clamp (Qpatch), room temperature. The procedure:
HEK293 cells were cultured in a DMEM medium containing 10% fetal bovine serum and 0.8 mg/mL G418 at 37 °C with 5% CO2. The cells were digested by TrypLE™ Express and then centrifuged. The cell density was adjusted to 2 × 10^6 cells/mL. The cells were then gently mixed for 15 to 20 min using a shaker equilibrated at room temperature, and subjected to a patch clamp assay on a machine. The culture medium of the prepared cells was replaced with extracellular fluid. The intracellular fluid and the extracellular fluid were taken from the fluid pool and added to the intracellular fluid pool and the cell and test substance pool of the QPlate chip, respectively. The voltage stimulation of the whole-cell hERG potassium current was recorded by the whole-cell patch clamp, and the experimental data were collected and stored by Qpatch. […] The current detected in compound-free extracellular fluid for each cell served as its own control group, and the detection was repeated twice independently using at least two cells per concentration. […] For data analysis, the current after the action of each drug concentration and the current of the blank control were standardized ((Peak tail currentcompound)/(Peak tail currentvehicle)) [formula] , and then the inhibition rate corresponding to each drug concentration was calculated (1−(Peak tail currentcompound)/(Peak tail currentvehicle)) [formula] . […]
Background: The hERG channel carries a current that helps repolarise heart muscle cells.

In general, pIC50 refers to the IC50 on a negative log10 scale, so that one unit is a factor of ten.

pIC50: −log10 of the molar value. Where two headings read alike, the source gives them in different places.

T2 sequence (Q12809 whole entry): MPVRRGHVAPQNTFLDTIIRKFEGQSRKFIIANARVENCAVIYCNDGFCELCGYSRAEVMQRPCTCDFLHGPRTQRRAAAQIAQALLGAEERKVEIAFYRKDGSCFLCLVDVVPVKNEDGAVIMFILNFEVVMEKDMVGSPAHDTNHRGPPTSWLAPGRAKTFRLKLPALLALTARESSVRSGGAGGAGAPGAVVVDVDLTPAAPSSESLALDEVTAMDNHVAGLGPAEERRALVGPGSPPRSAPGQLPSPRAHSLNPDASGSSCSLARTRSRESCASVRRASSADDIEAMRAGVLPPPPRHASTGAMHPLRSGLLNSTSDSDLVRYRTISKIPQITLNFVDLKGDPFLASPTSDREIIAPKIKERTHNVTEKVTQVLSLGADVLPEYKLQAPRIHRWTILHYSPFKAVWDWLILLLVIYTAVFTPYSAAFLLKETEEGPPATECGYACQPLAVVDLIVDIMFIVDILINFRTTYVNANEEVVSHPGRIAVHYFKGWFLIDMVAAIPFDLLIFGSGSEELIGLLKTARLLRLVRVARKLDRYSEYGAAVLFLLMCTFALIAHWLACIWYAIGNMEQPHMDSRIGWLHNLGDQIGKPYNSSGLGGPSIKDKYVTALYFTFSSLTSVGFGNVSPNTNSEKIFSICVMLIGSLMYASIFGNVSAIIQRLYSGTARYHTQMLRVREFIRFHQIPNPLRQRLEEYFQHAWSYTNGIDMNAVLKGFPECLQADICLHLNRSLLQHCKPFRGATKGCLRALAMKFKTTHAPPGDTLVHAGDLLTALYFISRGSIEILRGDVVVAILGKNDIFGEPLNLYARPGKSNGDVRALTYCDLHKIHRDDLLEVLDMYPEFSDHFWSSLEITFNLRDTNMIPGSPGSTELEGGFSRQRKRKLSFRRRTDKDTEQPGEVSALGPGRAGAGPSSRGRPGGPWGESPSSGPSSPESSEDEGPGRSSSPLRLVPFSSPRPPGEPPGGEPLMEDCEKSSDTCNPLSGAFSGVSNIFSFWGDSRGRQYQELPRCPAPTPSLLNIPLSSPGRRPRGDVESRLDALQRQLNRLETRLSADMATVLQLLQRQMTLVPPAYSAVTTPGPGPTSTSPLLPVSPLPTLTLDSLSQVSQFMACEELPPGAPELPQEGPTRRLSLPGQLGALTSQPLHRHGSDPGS

For `Cn1ncc2c(N)nc3cc(F)c(C(=O)N(Cc4ccc5c(c4)OC(F)(F)O5)C4CC4)cc3c21` [Example I-16], the pIC50 at CYP450 1A2 (human liver microsomes, 1A2, read-out: IC50) is less than 5.00.
`Cn1ncc2c(N)nc3cnc(C(=O)N4CCOC[C@@H]4c4ccc5c(c4)OC(F)(F)O5)cc3c21` [Example I-38] had a negative logarithm of the IC50 (pIC50) in series [1] of 4.66.
The molecule `Cn1ncc2c(N)nc3cc(F)c(C(=O)N4CCOC[C@@H]4c4ccc5c(c4)OC(F)(F)O5)cc3c21` [Example I-7] showed a pIC50 against CYP450 1A2 (human, microsomes, pH 7.4) of less than 5.00.
